Test systems include MDA-MB-231; ACHN; LOX IMVI; SK-OV-3; SW-620; UACC-257; U-251; T47D; SK-MEL-2; RPMI-8226; A549; M14; SF-295; NCI-H226; HCT-116; KM12; K562; SNB-75; SR; RXF 393.
What all share (experiment): growth of human tumour cells (NCI), 48 h

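A five-concentration, 48-hour dose response in 96-well plates underlies each endpoint, interpolated linearly between surrounding concentrations. At the GI50, growth is halved.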 Calls of active or inactive are those of the source. No stated cut-off is given here; in the data, active = GI50 up to about 1.1 µM and inactive = higher.

On to `CCCCc1ccc(Nc2nc(N)c3[nH]cnc3n2)cc1`, for which the GI50 in the test on MDA-MB-231 is 19.8 µM (inactive); with ACHN, 17 µM (inactive); with LOX IMVI, 18.4 µM (inactive); in the test with SK-OV-3, 20.8 µM (inactive); in the test on SW-620 it was 30.3 µM (inactive); with UACC-257, 26.5 µM (inactive). Besides, the GI50 in the test on U-251 is 24.4 µM (inactive); in the test on T47D, 35.1 µM (inactive); with SK-MEL-2 it was 22.4 µM (inactive); in the test with RPMI-8226, 25.4 µM (inactive); in the test on A549, 21.3 µM (inactive); in the test on M14 it was 31.2 µM (inactive). The GI50 was 25.9 µM (inactive) with SF-295; 8.73 µM (inactive) in the test on NCI-H226; 17.1 µM (inactive) with HCT-116; 18.3 µM (inactive) in the test with KM12; 28.1 µM (inactive) in the test with K562.

In the case of `C[C@]12C[C@H](c3ccccc3)Nc3ccccc3N1C(c1ccccc1)=NO2`, the GI50 in the test on MDA-MB-231 is > 100 µM (inactive); in the test with ACHN, 64.1 µM (inactive); with SK-OV-3, > 100 µM (inactive); with SW-620 it was > 100 µM (inactive); with SNB-75, 51.3 µM (inactive); in the test with UACC-257, 81.5 µM (inactive). For the same compound, the GI50 with U-251 is 96.4 µM (inactive); with SR it was 3.39 µM (inactive); in the test on SK-MEL-2, > 100 µM (inactive); in the test on RPMI-8226 it was 47.2 µM (inactive); in the test with A549 it was > 100 µM (inactive); in the test on M14, 49.2 µM (inactive). For the same compound, the GI50 was 22.5 µM (inactive) with SF-295; > 100 µM (inactive) in the test with NCI-H226; 60.8 µM (inactive) with HCT-116; > 100 µM (inactive) in the test with RXF 393; 61 µM (inactive) in the test with KM12; 33.8 µM (inactive) with K562.

As to `Cc1ccc2c3c1O[C@H]1c4[nH]c5ccccc5c4C[C@@]4(O)[C@@H](C2)N(C)CC[C@]314`, the GI50 was 15.2 µM (inactive) in the test with MDA-MB-231; 15.9 µM (inactive) in the test with ACHN; 15.4 µM (inactive) with LOX IMVI; 15 µM (inactive) in the test on SW-620; 13.7 µM (inactive) with UACC-257; 16 µM (inactive) in the test on U-251. For the same compound, the GI50 in the test on SR is 13.7 µM (inactive); with SK-MEL-2 it was 20.7 µM (inactive); in the test on RPMI-8226, 14.1 µM (inactive); in the test with A549, 17 µM (inactive); in the test on M14 it was 16.2 µM (inactive); with NCI-H226 it was 9.04 µM (inactive). Further, the GI50 is 16.6 µM (inactive) with HCT-116, 10.1 µM (inactive) with RXF 393, 16.9 µM (inactive) in the test with KM12 and 16.9 µM (inactive) in the test with K562.

Turning to `CCOC(=O)c1[nH]c2cccc3c2c1CC[C@H](NC(=O)C(F)(F)F)C3=O`, the GI50 in the test with MDA-MB-231 was > 100 µM (inactive); in the test with ACHN, < 0.01 µM (active); with LOX IMVI, 78 µM (inactive); with SW-620 it was 76.7 µM (inactive); with SNB-75, 24.3 µM (inactive); in the test with UACC-257, 76.6 µM (inactive). Besides, the GI50 was 22.5 µM (inactive) with U-251; > 100 µM (inactive) in the test on SR; 20 µM (inactive) in the test with SK-MEL-2; > 100 µM (inactive) with RPMI-8226; 28.8 µM (inactive) in the test with A549; 95.5 µM (inactive) in the test on M14. The GI50 is 22.3 µM (inactive) in the test on SF-295; > 100 µM (inactive) in the test on NCI-H226; 35.6 µM (inactive) with HCT-116; 61.8 µM (inactive) in the test with KM12; 45.8 µM (inactive) in the test with K562.

Take `COc1cc2c(cc1O)C1CC(CC3CCCCN31)OC(=O)/C=C\c1ccc(O)c-2c1` (stereo unspecified): the GI50 was 24.3 µM (inactive) in the test on MDA-MB-231; 31.6 µM (inactive) in the test on ACHN; 16.7 µM (inactive) in the test on LOX IMVI; 31.2 µM (inactive) in the test with SK-OV-3; 51.2 µM (inactive) with SW-620; 10.2 µM (inactive) in the test on SNB-75. The GI50 is 19.1 µM (inactive) with UACC-257; 35 µM (inactive) in the test with U-251; 18.5 µM (inactive) in the test on T47D; 26.5 µM (inactive) with SK-MEL-2; 27 µM (inactive) with RPMI-8226; 57 µM (inactive) with A549. In addition, the GI50 with M14 is 19.6 µM (inactive); in the test on SF-295, 13.5 µM (inactive); with NCI-H226, 41.4 µM (inactive); with HCT-116 it was 27.9 µM (inactive); in the test on KM12, 16.4 µM (inactive); in the test on K562 it was 28 µM (inactive).

As for `Cc1nc2c(=S)[nH]ncc2[nH]1`, the GI50 with MDA-MB-231, in the test with ACHN, in the test with LOX IMVI, in the test with SK-OV-3, in the test on SW-620 and with SNB-75 was > 100 µM (inactive) each time. In addition, the GI50 in the test with UACC-257, with U-251, with T47D, with SK-MEL-2, in the test with RPMI-8226 and in the test on A549 was > 100 µM (inactive) throughout. Further, the GI50 in the test on M14, in the test on SF-295, with NCI-H226, in the test on HCT-116, in the test on KM12 and with K562 was > 100 µM (inactive) throughout.

As to `CCOC(=O)/C(=C\NCC(OCC)OCC)c1nc2ccccc2[nH]1`, the GI50 in the test on ACHN was 35.2 µM (inactive); with LOX IMVI, 24.8 µM (inactive); in the test with SK-OV-3 it was 75 µM (inactive); in the test on SW-620 it was 41.4 µM (inactive); with SNB-75, 22.2 µM (inactive); with UACC-257, 25.1 µM (inactive). Besides, the GI50 in the test on U-251 was 35.5 µM (inactive); in the test on T47D it was 21.6 µM (inactive); in the test with SR, 18.6 µM (inactive); in the test with SK-MEL-2 it was 22.3 µM (inactive); with RPMI-8226, 18.7 µM (inactive); with A549, 42.9 µM (inactive). Also, the GI50 with M14 was 36.1 µM (inactive); in the test on SF-295, 32.1 µM (inactive); in the test on NCI-H226 it was 37.7 µM (inactive); in the test with HCT-116, 29.6 µM (inactive); in the test with RXF 393, 35.3 µM (inactive); in the test on KM12 it was 32.1 µM (inactive). For the same compound, the GI50 with K562 is 22.8 µM (inactive).

Regarding `O=C1C=C2CC[C@H]3[C@@H]4CC[C@H](OC(=O)c5cccc6cc7ccccc7nc56)[C@H]4CC[C@@H]3[C@H]2CC1`, the GI50 was 50.1 µM (inactive) in the test on MDA-MB-231; > 100 µM (inactive) in the test with ACHN; 15.9 µM (inactive) in the test on LOX IMVI; > 100 µM (inactive) in the test with SK-OV-3; > 100 µM (inactive) in the test on SW-620; > 100 µM (inactive) in the test on SNB-75. In addition, the GI50 was > 100 µM (inactive) with UACC-257; 99.3 µM (inactive) with U-251; > 100 µM (inactive) with SK-MEL-2; 93.3 µM (inactive) in the test on RPMI-8226; > 100 µM (inactive) with A549; > 100 µM (inactive) with M14. The GI50 with SF-295 is > 100 µM (inactive); in the test with NCI-H226, > 100 µM (inactive); with HCT-116, > 100 µM (inactive); in the test with KM12, > 100 µM (inactive); in the test with K562 it was 40.1 µM (inactive).

As to `CC(CN(C)C)C(=O)c1ccccc1C(=O)O` (stereo unspecified), the GI50 is 18.8 µM (inactive) in the test with MDA-MB-231; 35.6 µM (inactive) with ACHN; 33.4 µM (inactive) in the test on LOX IMVI; 39.4 µM (inactive) with SK-OV-3; 29.3 µM (inactive) with SW-620; 16.1 µM (inactive) in the test with U-251. For the same compound, the GI50 was 37.1 µM (inactive) with T47D; 15.7 µM (inactive) in the test with SK-MEL-2; 18.5 µM (inactive) in the test on RPMI-8226; 41.1 µM (inactive) with A549; 26.4 µM (inactive) with M14; 41.9 µM (inactive) in the test with SF-295. Further, the GI50 in the test on HCT-116 is 32.1 µM (inactive); in the test on RXF 393 it was 39.4 µM (inactive); with KM12, 30.5 µM (inactive); in the test on K562, 30.9 µM (inactive).

As for `CO[C@H]1C=C[C@]23c4cc5c(cc4CN(CC2O)[C@@H]3C1)OCO5` (stereo partly specified), the GI50 with MDA-MB-231 is 2.67 µM (inactive); in the test on ACHN it was 0.678 µM (active); in the test with LOX IMVI it was 2.18 µM (inactive); in the test with SK-OV-3, 0.388 µM (active); in the test with SW-620, 3.03 µM (inactive); in the test on SNB-75, 2.36 µM (inactive). In addition, the GI50 was 3.15 µM (inactive) in the test on UACC-257; 2.51 µM (inactive) in the test on U-251; 1.56 µM (inactive) in the test on T47D; 1.08 µM (active) in the test on SK-MEL-2; 2.82 µM (inactive) in the test on RPMI-8226; 3.2 µM (inactive) in the test with A549. For the same compound, the GI50 with M14 was 3.3 µM (inactive); in the test with SF-295, 0.375 µM (active); in the test on NCI-H226 it was 6.9 µM (inactive); with HCT-116 it was 1.97 µM (inactive); with KM12, 3.09 µM (inactive); in the test with K562, 2.04 µM (inactive).

As to `CC1CCCC2=C1C(c1ccc(Cl)cc1)n1c(s/c(=C\c3ccc(Cl)cc3)c1=O)=N2` (stereo unspecified), the GI50 in the test with MDA-MB-231, with ACHN, with LOX IMVI, with SK-OV-3, with SW-620 and in the test on SNB-75 was > 100 µM (inactive) in each case. In addition, the GI50 in the test on UACC-257, in the test with U-251, with T47D, in the test on SK-MEL-2, in the test on RPMI-8226 and in the test on A549 was > 100 µM (inactive) throughout. Also, the GI50 in the test on M14, in the test with HCT-116, in the test on RXF 393, in the test on KM12 and in the test on K562 was > 100 µM (inactive) each time.

The values above are taken from ChEMBL document CHEMBL1201862, “PubChem BioAssay data set” (2004).
